This is an account of results in PubChem BioAssay AID330 (DTP/NCI, 2004).

Where “and” joins values, the source holds several entries; their conditions need not be identical. Identical values can stand only once. Toxic doses and inconclusive results are not listed.

This assay relates to P388 leukemia ip, CD2F1 mice, survival T/C. Nature of the assay: NCI In Vivo Anticancer Drug Screen. Data for tumor model P388 Leukemia (intraperitoneal) in CD2F1 (CDF1) mice. The settings on record: endpoint: median survival time, higher = longer survival. The method in brief: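 Mice carrying the transplanted tumor received test compound or vehicle. Survival was recorded in each group, and the value is the treated-group measurement divided by that of the vehicle-treated control group.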

The mark [1] stands for this setting: dose: 100.0 mg/kg/injection, schedule: Q04DX002 (ip), vehicle: saline with Tween-80.
Setting [2] is: dose: 200.0 mg/kg/injection, schedule: Q04DX002 (ip), vehicle: saline with Tween-80.
Setting [3] is: dose: 50.0 mg/kg/injection, schedule: Q01DX009 (ip), vehicle: saline with Tween-80.
Where [4] appears, read: dose: 100.0 mg/kg/injection, schedule: Q01DX009 (ip), vehicle: saline with Tween-80.
Setting [5] is: dose: 100.0 mg/kg/injection, schedule: Q01DX001 (ip), vehicle: Klucel (hydroxypropylcellulose) (HPC).
[6] abbreviates: dose: 12.5 mg/kg/injection, schedule: Q01DX005 (ip), vehicle: saline with Tween-80.
The mark [7] stands for this setting: dose: 25.0 mg/kg/injection, schedule: Q01DX005 (ip), vehicle: saline with Tween-80.
[8] abbreviates: dose: 50.0 mg/kg/injection, schedule: Q01DX005 (ip), vehicle: saline with Tween-80.
Where [9] appears, read: dose: 200.0 mg/kg/injection, schedule: Q01DX005 (ip), vehicle: saline with Tween-80.
Where [10] appears, read: dose: 60.0 mg/kg/injection, schedule: Q01DX005 (ip), vehicle: saline.
[11] abbreviates: dose: 120.0 mg/kg/injection, schedule: Q01DX005 (ip), vehicle: saline.
The mark [12] stands for this setting: dose: 240.0 mg/kg/injection, schedule: Q01DX005 (ip), vehicle: saline.
Where [13] appears, read: dose: 100.0 mg/kg/injection, schedule: Q01DX005 (ip), vehicle: saline with Tween-80.

As to `COc1ccccc1C1c2cc3c(cc2OC(C)(N2CCCC2)C1C)OCO3` (stereo not drawn), the T/C runs as follows: under setting [1], 96 % of control; under setting [2], 102 % of control; (dose: 400.0 mg/kg/injection, schedule: Q04DX002 (ip), vehicle: saline with Tween-80) 99 % of control.
As to `COc1ccc2cc1CCNC(=O)C1CCCN1C(=O)C1NCCC1O2` (stereo not drawn), the T/C runs as follows: (dose: 20.0 mg/kg/injection, schedule: Q01DX005 (ip), vehicle: Klucel (hydroxypropylcellulose) (HPC)) 92 % of control; (dose: 40.0 mg/kg/injection, schedule: Q01DX005 (ip), vehicle: Klucel (hydroxypropylcellulose) (HPC)) 104 % of control; (dose: 80.0 mg/kg/injection, schedule: Q01DX005 (ip), vehicle: Klucel (hydroxypropylcellulose) (HPC)) 107 % of control.
On to `CC1(C)N=C(N)N=C(N)N1c1ccc(OCC(=O)Nc2ccccc2)c(Cl)c1`, for which the T/C (dose: 25.0 mg/kg/injection, schedule: Q01DX009 (ip), vehicle: saline with Tween-80) is 100 % of control; the T/C (dose: 25.0 mg/kg/injection, schedule: Q04DX003 (ip), vehicle: saline with Tween-80) is 100 % of control; the T/C under setting [3] was 104 % of control; the T/C (dose: 50.0 mg/kg/injection, schedule: Q04DX003 (ip), vehicle: saline with Tween-80) is 100 % of control; the T/C under setting [4] is 109 % of control; the T/C (dose: 100.0 mg/kg/injection, schedule: Q04DX003 (ip), vehicle: saline with Tween-80) is 113 % of control.
Turning to `c1ccc2c(c1)C1=NCCN1c1ccccc1-2`, the T/C is 109 % of control (dose: 12.0 mg/kg/injection, schedule: Q01DX009 (ip), vehicle: saline with Tween-80); 88 % of control (dose: 12.0 mg/kg/injection, schedule: Q01DX009 (ip), vehicle: saline); 113 % of control (dose: 18.0 mg/kg/injection, schedule: Q01DX009 (ip), vehicle: saline with Tween-80); 105 % of control (dose: 18.0 mg/kg/injection, schedule: Q01DX009 (ip), vehicle: saline); 118 % of control (dose: 27.0 mg/kg/injection, schedule: Q01DX009 (ip), vehicle: saline with Tween-80); 111 % of control (dose: 27.0 mg/kg/injection, schedule: Q01DX009 (ip), vehicle: saline). Under “dose: 40.0 mg/kg/injection, schedule: Q01DX009 (ip), vehicle: saline with Tween-80”, the T/C was 122 % of control.
Regarding `CC(=O)/C=C/c1ccc([N+](=O)[O-])cc1`, the T/C reads like this: (dose: 50.0 mg/kg/injection, schedule: Q01DX009 (ip), vehicle: Klucel (hydroxypropylcellulose) (HPC)) 100 % of control; (dose: 100.0 mg/kg/injection, schedule: Q01DX009 (ip), vehicle: Klucel (hydroxypropylcellulose) (HPC)) 90 % of control; (dose: 100.0 mg/kg/injection, schedule: Q04DX003 (ip), vehicle: Klucel (hydroxypropylcellulose) (HPC)) 91 % of control; (dose: 200.0 mg/kg/injection, schedule: Q01DX009 (ip), vehicle: Klucel (hydroxypropylcellulose) (HPC)) 98 % of control; (dose: 200.0 mg/kg/injection, schedule: Q04DX003 (ip), vehicle: Klucel (hydroxypropylcellulose) (HPC)) 89 % of control; (dose: 400.0 mg/kg/injection, schedule: Q04DX003 (ip), vehicle: Klucel (hydroxypropylcellulose) (HPC)) 97 % of control.
Consider `[Mn+2].[O-]c1ccccc1/C=N/c1ccccn1.[O-]c1ccccc1/C=N/c1ccccn1.[OH3+].[OH3+]`, for which the T/C was 97 % of control (dose: 50.0 mg/kg/injection, schedule: Q04DX002 (ip), vehicle: saline with Tween-80); 96 % of control under setting [1]; 94 % of control under setting [2].
Regarding `Cc1ccc(S(=O)(=O)Nc2ccccc2N(CCN(CCN(c2ccccc2NS(=O)(=O)c2ccc(C)cc2)S(=O)(=O)c2ccc(C)cc2)S(=O)(=O)c2ccc(C)cc2)S(=O)(=O)c2ccc(C)cc2)cc1`, the T/C is 90 % of control under setting [3]; 100 % of control under setting [4]; 90 % of control (dose: 200.0 mg/kg/injection, schedule: Q01DX009 (ip), vehicle: saline with Tween-80).
`C=C(C#N)N(C)c1ccccc1`: the T/C (dose: 3.12 mg/kg/injection, schedule: Q01DX005 (ip), vehicle: Klucel (hydroxypropylcellulose) (HPC)) is 94 % of control; the T/C (dose: 6.25 mg/kg/injection, schedule: Q01DX005 (ip), vehicle: Klucel (hydroxypropylcellulose) (HPC)) was 111 % of control; the T/C (dose: 12.5 mg/kg/injection, schedule: Q01DX005 (ip), vehicle: Klucel (hydroxypropylcellulose) (HPC)) is 94 % of control.
Regarding `O=c1oc2cc(-c3c(O)c4ccccc4oc3=O)c(O)cc2s1`, the T/C runs as follows: under setting [5], 113 % of control; (dose: 200.0 mg/kg/injection, schedule: Q01DX001 (ip), vehicle: Klucel (hydroxypropylcellulose) (HPC)) 104 % of control; (dose: 400.0 mg/kg/injection, schedule: Q01DX001 (ip), vehicle: Klucel (hydroxypropylcellulose) (HPC)) 106 % of control.
In the case of `Cc1c(COC(=O)NC(C)C)c(COC(=O)NC(C)C)c2n1CS(=O)C2` (stereo not drawn), the T/C under setting [6] is 104 % of control, the T/C under setting [7] was 111 % of control, the T/C under setting [8] was 118 % of control and the T/C under setting [9] is 176 % of control.
For the compound `C1CN2CCOC2O1`, the T/C under setting [10] is 100 % of control, the T/C under setting [11] is 101 % of control and the T/C under setting [12] is 99 % of control.
As to `O=C(N/N=C/c1cccc(O)c1O)c1ccccc1`, the T/C under setting [8] was 104 % of control, the T/C under setting [13] was 109 % of control and the T/C under setting [9] is 119 % of control.
Take `CC(=O)OC1CC(C)(C2OC(=O)CC2CO)C2=CC(=O)OC3CC4C(C)(O)C=CC(=O)C4(C)C1C23C` (stereo not drawn): the T/C (dose: 12.5 mg/kg/injection, schedule: Q01DX001 (ip), vehicle: Klucel (hydroxypropylcellulose) (HPC)) is 100 % of control; the T/C (dose: 25.0 mg/kg/injection, schedule: Q01DX001 (ip), vehicle: Klucel (hydroxypropylcellulose) (HPC)) was 100 % of control; the T/C (dose: 50.0 mg/kg/injection, schedule: Q01DX001 (ip), vehicle: Klucel (hydroxypropylcellulose) (HPC)) was 102 % of control; the T/C under setting [5] is 105 % of control.
As to `OCC1CSCN1` (stereo not drawn), the T/C is, setting by setting: (dose: 50.0 mg/kg/injection, schedule: Q04DX002 (ip), vehicle: saline) 93 % of control; (dose: 100.0 mg/kg/injection, schedule: Q04DX002 (ip), vehicle: saline) 99 % of control and 101 % of control; (dose: 200.0 mg/kg/injection, schedule: Q04DX002 (ip), vehicle: saline) 101 % of control and 120 % of control; (dose: 400.0 mg/kg/injection, schedule: Q04DX002 (ip), vehicle: saline) 101 % of control and 104 % of control.
Consider `O=S(=O)(O)CCCNC(CO)(CO)CO`, for which the T/C reads like this: under setting [10], 106 % of control; under setting [11], 107 % of control; under setting [12], 107 % of control.
`O=C(NNC(=O)c1ccc(Cl)cc1Cl)c1ccco1`: the T/C was 100 % of control (dose: 12.5 mg/kg/injection, schedule: Q01DX009 (ip), vehicle: saline); 102 % of control and 89 % of control (dose: 25.0 mg/kg/injection, schedule: Q01DX009 (ip), vehicle: saline); 100 % of control under setting [3]; 102 % of control and 97 % of control (dose: 50.0 mg/kg/injection, schedule: Q01DX009 (ip), vehicle: saline).
With `CCOn1nnc2c([N+](=O)[O-])cccc21`, the T/C runs as follows: under setting [8], 96 % of control; under setting [13], 92 % of control.
Turning to `CCC(CN)C1=Nc2ccccc2C1` (stereo not drawn), the T/C is 101 % of control (dose: 25.0 mg/kg/injection, schedule: Q04DX003 (ip), vehicle: saline); 96 % of control (dose: 50.0 mg/kg/injection, schedule: Q04DX003 (ip), vehicle: saline); 103 % of control and 111 % of control (dose: 100.0 mg/kg/injection, schedule: Q04DX003 (ip), vehicle: saline).
`CCOc1c(N=Nc2ccc([N+](=O)[O-])cc2)c(C)nn1C(N)=S`: the T/C reads like this: (dose: 60.0 mg/kg/injection, schedule: Q01DX005 (ip), vehicle: Klucel (hydroxypropylcellulose) (HPC)) 93 % of control; (dose: 120.0 mg/kg/injection, schedule: Q01DX005 (ip), vehicle: Klucel (hydroxypropylcellulose) (HPC)) 95 % of control; (dose: 240.0 mg/kg/injection, schedule: Q01DX005 (ip), vehicle: Klucel (hydroxypropylcellulose) (HPC)) 98 % of control.
As to `CN(C)CC(O)c1ccc2cc(Br)c3ccccc3c2c1` (stereo not drawn), the T/C was 97 % of control under setting [6]; 106 % of control under setting [7]; 100 % of control and 97 % of control under setting [8].
